Literature values in publication PMC6337497 (International Journal of Molecular Sciences, 2018).

Tested on: metastatic CRPC
Design: method as in PMID 12644816, PMID 11448901
Conditions: Phase II clinical trial; cited from earlier work

O=C1CCC(N2C(=O)c3ccccc3C2=O)C(=O)N1 (stereo not shown) [thalidomide]
patients with a decline in PSA of ≥40%: 30–40%
